Source: patent publication US20240000979A1, “METHODS AND COMPOSITIONS FOR SYNERGISTIC UPTAKE AND RETENTION OF SMALL MOLECULE LIGANDS” (CORNELL UNIVERSITY, priority 2020, published 2024)

What was measured:
[1] = tested on: LNCaP tumors; assay: Tumor harvest at necropsy and direct scintillation counting of tumor radioactivity; format: in vivo, mice; details: Day 3 (72 hours) tumor harvest
Excerpt: The dotted line represents the summation of the counts in the 617-Lu^177 plus the J591-Lu^177 tumors. […] To confirm the accuracy of this experiment which was based on […] imaging, determinations were done by tumor harvest at necropsy followed by direct counting of the radioactivity within the previously imaged tumors and calculating counts per mg of tumor.
At the Day 3 tumor harvest, the mean counts per mg tumor in each of the groups is shown in the table below (and FIG. 2) further confirming the imaging results.
In this animal study, which is a continuation of the imaging study described in Example 1, when the imaging was completed at 72 hours, the animals were necropsied, the tumors harvested, weighed and counted in a scintillation counter to derive the amount of radioactivity per mg (cpm/mg) of tumor. The tumors treated with J591-Lu^177 had 2.2-fold the counts of those tumors that had gotten PSMA-617-Lu^177 alone (FIG. 2). The tumors treated with the combination had counts 48% greater than the sum of each of its individual components, meeting the definition of synergy (FIG. 2). The physical counting of the tumor radioactivity confirmed the results obtained by imaging.

[2] = tested on: LNCaP tumors; assay: SPECT/CT imaging of radioactivity within tumors after injection; format: in vivo, mice; details: for activity concentration in tumor (imaging): mean of group, LNCaP tumors in mice
Procedure: In this animal study, three groups of mice were implanted with LNCaP tumors (in Matrigel) with 6-8 tumors per group. After the tumors were established, one group was injected with J591-Lu^177, a 2nd group with PSMA-617-Lu^177 and a 3rd group got both PSMA617-Lu^177 and J591-Lu^177.
Radiolabeling both PSMA-617 and J591 allowed both to be tracked individually as well as their total when combined. All mice were imaged in a Siemens Inveon dedicated animal multimodality SPECT/CT. Coaxial CT images were acquired for anatomical and attenuation information prior to each SPECT acquisition to measure the radioactivity within the tumors at the 1, 4, 24 and 72 hour time points after injection. SPECT images were reconstructed using the Siemens OSEM algorithm with corrections for scatter, attenuation, decay, and ^177Lu emission spectrum. The mean number of counts within the tumors in each group and time point was calculated and plotted. THe imaging data measured an activity concentration in Bq/mL of tumor: […]

Question: How did the Mean cpm/mg tumor [1] turn out when O=C(O)CC[C@H](NC(=O)N[C@@H](CCCCNC(=O)[C@H](Cc1ccc2ccccc2c1)NC(=O)[C@H]1CC[C@H](CNC(=O)CN2CCN(CC(=O)O)CCN(CC(=O)O)CCN(CC(=O)O)CC2)CC1)C(=O)O)C(=O)O [PSMA-617-Lu^177] was run?
Answer: 7.536 cpm/mg

Question: What about the “course of tumor counts over time (imaging, in words)” value ([2]; 1 to 72 hour, LNCaP tumors) of the same compound?
Answer: high uptake at 1 hour that then diminished over time

Question: What about the “activity concentration in tumor (imaging)” value (shortened to “activity concentration”) ([2]; 1 hr after injection) of the same compound?
Answer: 29.55 Bq/mL

Question: What about the “activity concentration” value ([2]; 4 hr after injection) of the same compound?
Answer: 30.62 Bq/mL

Question: And the “activity concentration” value ([2]; 24 hr after injection)?
Answer: 27.1 Bq/mL

Question: What about the “activity concentration” value ([2]; 72 hr after injection) of the same compound?
Answer: 12.48 Bq/mL
